Read-outs that look alike come from different tables or passages of the source.
Tested on: TNFα secretion in RAW 264.7 macrophages
Test: TNFα release assay in RAW 264.7 macrophages stimulated with LPS
Assay type: cell-based, mouse
Source text: The purpose of this assay is to measure the ability of small molecules to inhibit the secretion of TNFα in cultured macrophages stimulated with lipopolysaccharide (LPS). Treatment of macrophages with LPS activates inflammatory cytokine pathways primarily through the TLR4-NFκB signaling axis. […] Dexamethasone, a potent agonist of the glucocorticoid receptor is used a positive control for inhibition of TNFα release. Day 1: Seed RAW 264.7 macrophages into 96 well culture plates. Remove culture media from RAW 264.7 cell growing in a […] tissue culture flask (cells should be at […] confluence) and add 10 ml of warmed complete growth media (DMEM+10% FBS+1× pen/step). The cells are scraped into suspension using a sterile plate scraper and homogenized by pipetting up and down with a 10 ml serological pipette. The cell concentration is determined using a clinical hematoctyometer. Cells are then diluted to 150,000 cells per ml into growth media. The diluted cells are then transferred to a sterile reagent reservoir and 100 μl of cell suspension is pipetted into each well of a 96 well culture plate using a multichannel pipette (15,000 cells/well). Plates are then incubated at 37° C. under normal tissue culture growth conditions (37° C., humidified CO2 chamber). Day 2: The test compound sample plate is prepared. Test compounds are prepared in growth media. Compounds are delivered to media from 1000× stocks in 100% DMSO (e.g. for a 10 μM final concentration of test compound, deliver 2 μl of 10 mM test compound to 2 ml of media). At least 150 μl of 1× compound in media is added to 96 well sample plate. Note: the perimeter wells of the 96 well plate are not used to avoid edge effects. Twelve sample wells are prepared with media plus 0.1% DMSO (these samples will serve as the vehicle controls; LPS-stimulated and non-stimulated. 10 μM dexamethasone is used as a positive control). Culture plates are then returned to the growth incubator for 2 hours. Cells are stimulated afterwards by adding 25 μl of 50 ng/ml LPS is added to every well (except the 6 unstimulated vehicle control wells: final concentration of 10 ng/ml LPS. Plates are returned to growth incubator for 3 hours. Afterwards, 100 μl of media supernatant is removed and transferred to a 96 well v-bottom sample plate. The media supernatant plate is centrifuged for 5 minutes at 1000 rpm in a swing-bucket centrifuge, pelleting any cellular debris that may remain in supernatant. 80 μl of supernatant is removed from sample plate and transferred to a fresh v-bottom 96 well plate. Cell viability is measured using Celltiter-glo kit. By measuring cell viability, a given compound's effects on TNFα secretion can determine whether effects are due to cytotoxicity or to true inhibition of inflammatory signaling. Add 100 μl of Celltiter-glo reagent to each well of the cell culture plate and afterwards measure the luminescence signal (CPS) of the plate using the Victor 5 plate reader (0.3 second read; 60 second plate shaking prior to read). Cell viability of a given compound at a given concentration is computed as follows: Cell viability=CPS Sample/(Average CPS unstimulated controls)*100 […] Follow Invitrogen/Biosource manufacture's protocol for the mouse TNFα ELISA. Chromogen development is typically conducted for 20-30 minutes as described in the manufacturer's protocol. After addition of stop solution, measure OD 450 nm using the Victor 5 plate reader (0.1 second/well scan). Determine the TNFα secretion percent of control. The following formula is used to determine the TNFα secretion percent of control: [formula] For each test compound, TNFα secretion percent of control can be plotted as a function of compound concentration using a four parameter dose-response curve fit equation (XLFIT Model #205): fit=([…]=([…]=(y-fit) […] A sample graph showing the data obtained by using one of the Compounds of the Invention in the procedure described above in Example 6 is shown in FIG. 2.

[1] = RAW264.7, RAW 264.7 macrophages, 10 ng/ml LPS, mouse TNFα ELISA, read-out: TNFα Secretion, IC50 μM

Row | IC50 [1] [µM] | SMILES | also measured
1 | > 100 | CC/C=C\C/C=C\C/C=C\C/C=C\C/C=C\C/C=C\CCC(=O)O [DHA, all-cis-4,7,10,13,16,19-docosahexaenoic acid, reference compound] | –
2 | 15 | CC/C=C\C/C=C\C/C=C\C/C=C\C/C=C\C/C=C\CCC(=O)NCCNC(=O)c1ccccc1O [Compound 31, N-(2-(4Z,7Z,10Z,13Z,16Z,19Z)-docosa-4,7,10,13,16,19-hexaenamidoethyl)-2-hydroxybenzamide] | –
3 | 65.3 | CC/C=C\C/C=C\C/C=C\C/C=C\C/C=C\C/C=C\CCC(=O)NC(CC(C)C)C(=O)Nc1ccc(O)c(C(=O)O)c1 (stereo not shown) [III-6, 5-(2-(4Z,7Z,10Z,13Z,16Z,19Z)-docosa-4,7,10,13,16,19-hexaenamido-4-methylpentanamido)-2-hydroxybenzoic acid] | –
4 | > 100 | Nc1ccc(O)c(C(=O)O)c1 [Compound 5-ASA, 5-aminosalicylic acid, reference compound] | –
5 | – | CC/C=C\C/C=C\C/C=C\C/C=C\C/C=C\C/C=C\CCC(=O)NC(CC(C)C)C(=O)Oc1ccccc1C(=O)OCC (stereo not shown) [Compound I-1, ethyl 2-(2-(4Z,7Z,10Z,13Z,16Z,19Z)-docosa-4,7,10,13,16,19-hexaenamido-4-methylpentanoyloxy)benzoate] | inhibition at 6.2 µM (Mus musculus, RAW264.7, read-out: TNFα Secretion, % Inhibition): 24.4%
6 | 69.2 | CC/C=C\C/C=C\C/C=C\C/C=C\C/C=C\C/C=C\CCC(=O)Oc1ccccc1C(=O)O [Ia-1, 2-((4Z,7Z,10Z,13Z,16Z,19Z)-docosa-4,7,10,13,16,19-hexaenoyloxy)benzoic acid] | –
7 | – | CC/C=C\C/C=C\C/C=C\C/C=C\C/C=C\C/C=C\CCC(=O)Nc1ccc(O)c(C(=O)O)c1 [III-1, 5-(4Z,7Z,10Z,13Z,16Z,19Z)-docosa-4,7,10,13,16,19-hexaenamido-2-hydroxybenzoic acid] | IC50 (Mus musculus, RAW264.7, read-out: TNFα Secretion, IC50 μM): 146 µM

From US20180325923A1, “FATTY ACID ACETYLATED SALICYLATES AND THEIR USES” (Catabasis Pharmaceuticals, Inc., priority 2008, published 2018)
